Patent US9901636B2, “Conjugate of a photosensitiser and chitosan and uses thereof” (PCI BIOTECH AS, priority 2012, dated 2018)

Columns and labels:
[1] = Fluorescence quantum yield, steady-state comparative method vs anthracene; format: physicochemical; conditions: DMSO at room temperature
Experimental: UV-Vis measurements were recorded on a Perkin-Elmer Lambda 25 UV-Vis. spectrometer equipped with a Peltier Temperature Programmer. Fluorescence emission spectra were obtained using a SPEX FluoroMax spectrometer, using a cell with spectral range 170-2200 nm (Spectrocell Corporation, Oreland, Pa., USA). Absorption spectra were recorded at 20° C. and fluorescence emission spectra were recorded at ambient temperature, using quartz cuvette with a 10 mm path length. All the fluorescence spectra were recorded with constant slit widths, 1 nm for excitation and 1 nm for emission and fluorescence spectra were averaged over three scans for quantum yield study. However, for FIG. 5 (III) fluorescence spectra were obtained with slit widths 3 nm for excitation and 3 nm for emission.
Fluorescence quantum yields of compounds 3, 5, 16A-19B (all excited at Δex.=λmax=419 nm) were determined relative to a dilute solution of standard anthracene (φF=0.27, λex=365.5 nm) in absolute ethanol by using the steady-state comparative method. using the following equation: φX=φST(GradX/GradST)(ηS^2,ηST^2) where, the subscripts ST and X denote standard and test respectively, φ is the fluorescence quantum yield, Grad the gradient from the plot of integrated fluorescence intensity versus absorbance, and η the refractive index of the solvent.

[2] = Partitioning in aqueous:CHCl3 two-phase system; format: physicochemical; conditions: two-phase H2O/CHCl3 system (FIG. 6)
From the text: (A) TPP(p-NH2)13 (B) TPPNH-Pip 5 (C) TPPp0.25-CS-TMA0.75 17A (D) TPPp0.25-CS-MP0.75 19A. Aqueous phases are shown on top.
In the ^1H NMR spectra of final compound TPPp0.1-CS-MP0.9 18A all peaks of the chitosan backbone along with the 1-methyl piperazine peaks can be clearly identified; however there is no observable NMR signal of the TPP moiety (FIG. 5E). […] In d6-DMSO the TPP peaks could be observed but in this case the chitosan backbone peaks were broadened and not clearly identifiable. […] The TPPp0.1-CS-MP0.9 18A has a dark red color confirming the presence of the PS.

[3] = Bhaumik et al., excited at 418 nm in DMF, TPP as standard; cited from earlier work
[4] = Table 4, λabs 420 nm, λem 653 nm
[5] = Table 2, excited at 419 nm, standard anthracene

Row | Quantum Yield (φF) [1, 4] | Quantum Yield (φF) [1, 5] | Partitioning between aqueous and organic phase [2] | Compound | Fluorescence quantum yield (φF), literature value [3]
1 | 0.01331 |  |  | 5-(4-Carboxyphenyl)-10,15,20-triphenylchlorin [Compound 26] | 
2 |  | 0.0002 | did not partition into the aqueous phase | Nc1ccc(-c2c3nc(c(-c4ccccc4)c4ccc([nH]4)c(-c4ccccc4)c4nc(c(-c5ccccc5)c5ccc2[nH]5)C=C4)C=C3)cc1 [Compound 3, 5-(4-Aminophenyl)-10,15,20-triphenylporphyrin, reference compound] | 0.05
3 |  | 0.0036 | did not partition into the aqueous phase | O=C(CN1CCNCC1)Nc1ccc(-c2c3nc(c(-c4ccccc4)c4ccc([nH]4)c(-c4ccccc4)c4nc(c(-c5ccccc5)c5ccc2[nH]5)C=C4)C=C3)cc1 [Compound 5, 5-(4α-Piperazineacetylamidophenyl)-10,15,20-triphenylporphyrin] | 
4 | 0.00246 |  |  | Nc1ccc(-c2c3nc(c(-c4ccccc4)c4ccc([nH]4)c(-c4ccccc4)c4nc(c(-c5ccccc5)c5ccc2[nH]5)C=C4)CC3)cc1 [Compound 20, 5-(4-Aminophenyl)-10,15,20-triphenylchlorin] | 
